Experimental data: PMC4220016, “The binding characteristics and orientation of a novel radioligand with distinct properties at 5-HT3A and 5-HT3AB receptors” (Neuropharmacology, 2014)
Read-outs that look alike come from different tables or passages of the source.

How the values were obtained:
5-HT3A receptor Y234C = biological target: T1, 5-HT3A receptor Y234C (Homo sapiens, UniProt P46098, Y229C); experiment: Saturation binding of [^3H]VUF10166 at 5-HT3A receptor mutant; conditions: Loop C, read-out: Kd (nM) Mean ± SEM
T1 construct: expressed in transfected cells; host or cells: HEK 293
T1 sequence (P46098 24-478 Y229C): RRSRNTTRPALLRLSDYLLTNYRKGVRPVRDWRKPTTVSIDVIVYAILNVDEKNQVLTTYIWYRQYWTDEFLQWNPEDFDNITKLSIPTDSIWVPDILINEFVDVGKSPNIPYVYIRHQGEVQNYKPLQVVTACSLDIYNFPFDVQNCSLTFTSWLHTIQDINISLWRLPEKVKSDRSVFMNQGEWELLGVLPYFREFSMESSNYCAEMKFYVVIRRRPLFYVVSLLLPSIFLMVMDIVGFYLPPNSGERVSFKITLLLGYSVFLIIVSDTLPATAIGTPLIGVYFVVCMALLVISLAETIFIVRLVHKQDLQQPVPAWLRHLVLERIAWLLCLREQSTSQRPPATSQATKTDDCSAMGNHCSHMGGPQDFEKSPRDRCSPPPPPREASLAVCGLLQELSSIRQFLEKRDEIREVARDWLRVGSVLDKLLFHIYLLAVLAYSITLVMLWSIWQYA
Experimental: (§1) Mutagenesis was performed using the QuikChange method (Agilent Technologies Inc., California, USA) on human 5-HT3A cDNA (accession number: P46098) cloned into pcDNA3.1 (Invitrogen, Paisley, UK). Cysteine residues were substituted for amino acids throughout each of the binding loops A–E (Fig. 1). To facilitate comparisons with previous work, we use the numbering of the equivalent residues in the mouse 5-HT3A subunit; for human numbering 5 should be subtracted from each residue number.
(§2) All data were analysed using GraphPad Prism 4.03.

5-HT3A receptor K112C = biological target: T2, 5-HT3A receptor K112C (Homo sapiens, UniProt P46098, K107C); experiment: as above; conditions: K112C; read-out: Kd (nM) Mean ± SEM
T2 construct: expressed in transfected cells; host or cells: HEK 293
T2 sequence (P46098 24-478 K107C): as the sequence (P46098 24-478 Y229C) above, with K84C, C206Y counted along it
Experimental: as §1, §2

5-HT3A receptor R145C = biological target: T3, 5-HT3A receptor R145C (Homo sapiens, UniProt P46098, R140C); experiment: as above; conditions: R145C, Loop E; read-out: Kd (nM) Mean ± SEM
T3 construct: expressed in transfected cells; host or cells: HEK 293
T3 sequence (P46098 24-478 R140C): as the sequence (P46098 24-478 Y229C) above, with R117C, C206Y counted along it
Experimental: as §1, §2

5-HT3A receptor D189C = biological target: T4, 5-HT3A receptor D189C (Homo sapiens, UniProt P46098, D184C); experiment: as above; conditions: Loop B, read-out: Kd (nM) Mean ± SEM
T4 construct: expressed in transfected cells; host or cells: HEK 293
T4 sequence (P46098 24-478 D184C): as the sequence (P46098 24-478 Y229C) above, with D161C, C206Y counted along it
Experimental: as §1, §2

5-HT3A receptor N128C = biological target: T5, 5-HT3A receptor N128C (Homo sapiens, UniProt P46098, N123C); experiment: as above; conditions: N128C, Loop A; read-out: Kd (nM) Mean ± SEM
T5 construct: expressed in transfected cells; host or cells: HEK 293
T5 sequence (P46098 24-478 N123C): as the sequence (P46098 24-478 Y229C) above, with N100C, C206Y counted along it
Experimental: as §1, §2

5-HT3A receptor R92C = biological target: T6, 5-HT3A receptor R92C (Homo sapiens, UniProt P46098, R87C); experiment: as above; conditions: R92C, Loop D; read-out: Kd (nM) Mean ± SEM
T6 construct: expressed in transfected cells; host or cells: HEK 293
T6 sequence (P46098 24-478 R87C): as the sequence (P46098 24-478 Y229C) above, with R64C, C206Y counted along it
Experimental: as §1, §2

5-HT3A receptor E236C = biological target: T7, 5-HT3A receptor E236C (Homo sapiens, UniProt P46098, E231C); experiment: as above; conditions: Loop C, read-out: Kd (nM) Mean ± SEM
T7 construct: expressed in transfected cells; host or cells: HEK 293
T7 sequence (P46098 24-478 E231C): as the sequence (P46098 24-478 Y229C) above, with C206Y, E208C counted along it
Experimental: as §1, §2

5-HT3A receptor I71C = biological target: T8, 5-HT3A receptor I71C (Homo sapiens, UniProt P46098, I66C); experiment: as above; conditions: I71C; read-out: Kd (nM) Mean ± SEM
T8 construct: expressed in transfected cells; host or cells: HEK 293
T8 sequence (P46098 24-478 I66C): as the sequence (P46098 24-478 Y229C) above, with I43C, C206Y counted along it
Experimental: as §1, §2

5-HT3A receptors = biological target: T9, 5-HT3A receptors (Homo sapiens, UniProt P46098); experiment: biochemical; type: binding; design: expressed in transfected cells; host or cells: HEK 293
T9 sequence (P46098 24-478): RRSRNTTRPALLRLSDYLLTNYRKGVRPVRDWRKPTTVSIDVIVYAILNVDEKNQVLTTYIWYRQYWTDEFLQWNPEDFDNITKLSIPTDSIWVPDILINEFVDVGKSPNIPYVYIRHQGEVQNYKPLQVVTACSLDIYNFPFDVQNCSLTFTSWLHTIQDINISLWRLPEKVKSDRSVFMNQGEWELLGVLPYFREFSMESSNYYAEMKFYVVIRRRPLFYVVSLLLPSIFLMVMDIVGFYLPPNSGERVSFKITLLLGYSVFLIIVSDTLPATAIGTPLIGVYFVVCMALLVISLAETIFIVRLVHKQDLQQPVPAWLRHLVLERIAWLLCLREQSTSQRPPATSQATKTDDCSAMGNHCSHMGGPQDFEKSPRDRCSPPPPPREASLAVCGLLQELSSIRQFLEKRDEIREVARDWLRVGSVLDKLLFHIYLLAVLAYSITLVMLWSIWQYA

SMILES: CN1CCN(c2nc3ccccc3nc2Cl)CC1 [[^3H]VUF10166] [2-chloro-3-(4-[^3H]methylpiperazin-1-yl)quinoxaline]
- Kd (5-HT3A receptor Y234C): > 10 nM
- Kd (5-HT3A receptor K112C): 0.13 ± 0.03 nM
- Kd (5-HT3A receptor R145C): 0.96 ± 0.35 nM
- Kd (5-HT3A receptor D189C): > 10 nM
- Kd (5-HT3A receptor N128C): 0.7 ± 0.1 nM
- Kd (5-HT3A receptor R92C): 0.88 ± 0.19 nM
- Kd (5-HT3A receptor E236C): > 10 nM
- Kd (5-HT3A receptor I71C): 0.23 ± 0.05 nM
- Kd (5-HT3A receptors; 5-HT3A, tritiated ligand, transfected HEK 293 cells, 0 °C, read-out: Kd (nM) saturation): 0.18 nM
- Kd (5-HT3A receptors; Wild Type, Table 5 series, read-out: Kd (nM) Mean ± SEM): 0.21 ± 0.04 nM
